In patent publication US9187428B2, “Substituted dicyanopyridines and use thereof” (Bayer Intellectual Property GmbH, priority 2010, dated 2015) one finds solubility and EC50 data, which are given here for 15 molecules.

pEC50: −log10 of the molar value. In brackets after ≈: the same amount, converted by molar mass. Where a name gives a salt, the structure may show the parent alone. Read-outs that look alike come from different tables or passages of the source.

Series [1] in a line: Determination of the solubility. In kind it is physicochemical. As to conditions: kinetic from dmso stock. As for the experimental part:
B-8. Determination of the Solubility
• PBS buffer pH 6.5: 90.00 g of NaCl p.a. (for example from Merck, Art. No. 1.06404.1000), 13.61 g of KH2PO4 p.a. (for example from Merck, Art. No. 1.04873.1000) and 83.35 g of 1 N aqueous sodium hydroxide solution (for example from Bernd Kraft GmbH, Art. No. 01030.4000) are weighed into a 1 liter measuring flask, the flask is filled with distilled water to 1 liter and the mixture is stirred for 1 hour. Using 1 N hydrochloric acid (for example from Merck, Art. No. 1.09057.1000) the pH is then adjusted to 6.5. • PEG/water solution (30:70 v/v): 30 ml of polyethylene glycol 400 (for example from Merck, Art. No. 8.17003.1000) and 70 ml of distilled water are homogenized in a 100 ml measuring flask. • PEG/PBS buffer pH 6.5 (80:20 v/v): 80 ml of polyethylene glycol 400 (for example from Merck, Art. No. 8.17003.1000) and 20 ml of PBS buffer pH 6.5 are homogenized in a 100 ml measuring flask. • Dimethyl sulfoxide (for example from Baker, Art. No. 7157.2500) • Distilled water. Preparation of the Starting Solution (Original Solution):
At least 4 mg of the test substance are weighed accurately into a wide-necked 10 mm screw V vial (from Glastechnik Gräfenroda GmbH, Art. No. 8004-WM-H/V15μ) with fitting screw cap and septum, in a pipetting robot DMSO is added to a concentration of 50 mg/ml and the mixture is shaken for 10 minutes.
Preparation of the Calibration Solutions:
Preparation of the Starting Solution for Calibration Solutions (Stock Solution):
With the aid of a pipetting robot, 10 μl of the original solution are transferred into a microtiter plate and made up with DMSO to a concentration of 600 μg/ml. The sample is shaken until everything has gone into solution.
Calibration Solution 1 (20 μg/ml):
1000 μl of DMSO are added to 34.4 μl of the stock solution, and the mixture is homogenized.
Calibration Solution 2 (2.5 μg/ml):
700 μl of DMSO are added to 100 μl of calibration solution 1, and the mixture is homogenized.
Preparation of the Sample Solutions:
Sample Solution for Solubilities of Up to 5 g/liter in PBS Buffer pH 6.5:
10 μl of the original solution are transferred into a microtiter plate, and 1000 μl of PBS buffer pH 6.5 are added.
Sample Solution for Solubilities of Up to 5 g/liter in PEG/Water (30:70):
10 μl of the original solution are transferred into a microtiter plate, and 1000 μl of PEG/water (30:70) are added.
Sample Solution for Solubilities of Up to 5 g/liter in PEG/PBS Buffer pH 6.5 (80:20):
10 μl of the original solution are transferred into a microtiter plate, and 1000 μl of PEG/PBS buffer pH 6.5 (80:20) are added.
The sample solutions prepared in this manner are shaken at 1400 rpm in a temperature-adjustable shaker (for example Eppendorf Thermomixer comfort Art. No. 5355 000.011 with interchangeable block Art. No. 5362.000.019) at 20° C. for 24 hours. In each case 180 μl are taken from these solutions and transferred into Beckman Polyallomer Centrifuge Tubes (Art. No. 343621). These solutions are centrifuged at about 223 000×g for one hour (for example Beckman Optima L-90K Ultracentrifuge with Type 42.2 Ti Rotor at 42 000 rpm). From each of the sample solutions, 100 μl of the supernatant are removed and diluted 1:5 and 1:100 with DMSO. From each dilution, a sample is transferred into a vessel suitable for HPLC analysis.
The samples are analyzed by RP-HPLC. Quantification is carried out using a two-point calibration curve of the test compound in DMSO. The solubility is expressed in mg/liter. Analysis sequence: 1) calibration solution […]; 2) calibration solution […]; 3) sample solution 1:5; 4) sample solution 1:100. […]

A further series addresses adenosine A1 receptor (Homo sapiens (Human), UniProt P30542). In words: Indirect determination of adenosine agonism by gene expression (luciferase reporter), A1 cells. In kind it is cell-based. The note with it: CHO cells stably transfected with adenosine A1 receptor; 1 μM forskolin; 50% inhibition of luciferase response. From the text: (§1) B-1. Indirect Determination of the Adenosine Agonism by Way of Gene Expression
(§2) Cells of the CHO (Chinese Hamster Ovary) permanent line are transfected stably with the cDNA for the adenosine receptor subtypes A1, A2a and A2b. The adenosine A1 receptors are coupled to the adenylate cyclase by way of Gi proteins, while the adenosine A2a and A2b receptors are coupled by way of Gs proteins. In correspondence with this, the formation of cAMP in the cell is inhibited or stimulated, respectively. After that, expression of the luciferase is modulated by way of a cAMP-dependent promoter. The luciferase test is optimized, with the aim of high sensitivity and reproducibility, low variance and good suitability for implementation on a robot system, by varying several test parameters, such as cell density, duration of the growth phase and the test incubation, forskolin concentration and medium composition. The following test protocol is used for pharmacologically characterizing cells and for the robot-assisted substance screening:
(§3) The stock cultures are grown, at 37° C. and under 5% CO2, in DMEM/F12 medium containing 10% FCS (fetal calf serum) and in each case split 1:10 after 2-3 days. Test cultures are seeded in 384-well plates with 2000 cells per well and grown at 37° C. for approx. 48 hours. The medium is then replaced with a physiological sodium chloride solution (130 mM sodium chloride, 5 mM potassium chloride, 2 mM calcium chloride, 20 mM HEPES, 1 mM magnesium chloride hexahydrate, 5 mM sodium bicarbonate, pH 7.4). The substances to be tested, which are dissolved in DMSO, are pipetted into the test cultures (maximum final concentration of DMSO in the test mixture: 0.5%) in a dilution series of from 5×10^−11 M to 3×10^−6 M (final concentration). 10 minutes later, forskolin is added to the A1 cells and all the cultures are subsequently incubated at 37° C. for four hours. After that, 35 μl of a solution which is composed of 50% lysis reagent (30 mM disodium hydrogenphosphate, 10% glycerol, 3% TritonX100, 25 mM TrisHCl, 2 mM dithiotreitol (DTT), pH 7.8) and 50% luciferase substrate solution (2.5 mM ATP, 0.5 mM luciferin, 0.1 mM coenzyme A, 10 mM tricine, 1.35 mM magnesium sulfate, 15 mM DTT, pH 7.8) are added to the test cultures, which are shaken for approx. 1 minute and the luciferase activity is measured using a camera system. The EC50 values are determined, i.e., the concentrations at which 50% of the luciferase response is inhibited in the case of the A1 cell, and, respectively, 50% of the maximum stimulation with the corresponding substance is achieved in the case of the A2b and A2a cells. […] Pharmacol., 357, 1-9 (1998)].
(§4) Table A below lists the EC50 values of representative working examples for the receptor stimulation on adenosine A1, A2a and A2b receptor subtypes: […]

The next series concerns the target adenosine A2b receptor (Homo sapiens (Human), UniProt P29275). In words: Indirect determination of adenosine agonism by gene expression (luciferase reporter), A2b cells. In kind it is cell-based. As to conditions: CHO cells stably transfected with adenosine A2b receptor, 50% of maximum stimulation.
Text: as §1, §2, §3, §4
In general terms: Reporter assays use an easily measured gene product as a stand-in for the process of interest.

The target of the next series is adenosine A2a receptor (Homo sapiens (Human), UniProt P29274). In words: Indirect determination of adenosine agonism by gene expression (luciferase reporter), A2a cells. The format is cell-based. The note with it: CHO cells stably transfected with adenosine A2a receptor, 50% of maximum stimulation.
Text: as §1, §2, §3, §4

Setting [2] is: PEG 400/water solution (30:70 v/v), aqueous with cosolvent or surfactant or cyclodextrin, PEG 400/water (30:70 v/v), 20° C., read-out: Solubility [mg/liter] PEG/water solution (30:70 v/v).
The mark [3] stands for this setting: aqueous buffer, PBS buffer pH 6.5, 20° C., read-out: Solubility [mg/liter] PBS buffer.

Chain of adenosine A2b receptor (P29275 whole entry): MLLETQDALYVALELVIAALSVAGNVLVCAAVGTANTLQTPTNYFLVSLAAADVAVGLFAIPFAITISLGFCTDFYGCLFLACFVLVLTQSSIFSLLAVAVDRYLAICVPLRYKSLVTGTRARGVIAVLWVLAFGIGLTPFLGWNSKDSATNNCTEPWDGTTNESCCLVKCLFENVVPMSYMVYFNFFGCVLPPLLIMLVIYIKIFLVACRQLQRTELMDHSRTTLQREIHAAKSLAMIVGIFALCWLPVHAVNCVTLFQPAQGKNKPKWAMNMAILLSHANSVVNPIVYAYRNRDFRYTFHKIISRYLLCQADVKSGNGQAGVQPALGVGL
Chain of adenosine A1 receptor (P30542 whole entry): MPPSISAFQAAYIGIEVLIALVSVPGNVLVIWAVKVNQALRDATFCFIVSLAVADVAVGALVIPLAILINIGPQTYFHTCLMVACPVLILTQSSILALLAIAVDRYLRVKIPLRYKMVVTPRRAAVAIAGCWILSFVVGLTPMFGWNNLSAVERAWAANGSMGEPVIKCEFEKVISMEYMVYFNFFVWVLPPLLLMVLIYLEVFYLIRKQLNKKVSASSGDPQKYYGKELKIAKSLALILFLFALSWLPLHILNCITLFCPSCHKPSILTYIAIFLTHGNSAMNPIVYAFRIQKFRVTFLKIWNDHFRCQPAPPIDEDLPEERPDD
Chain of adenosine A2a receptor (P29274 whole entry): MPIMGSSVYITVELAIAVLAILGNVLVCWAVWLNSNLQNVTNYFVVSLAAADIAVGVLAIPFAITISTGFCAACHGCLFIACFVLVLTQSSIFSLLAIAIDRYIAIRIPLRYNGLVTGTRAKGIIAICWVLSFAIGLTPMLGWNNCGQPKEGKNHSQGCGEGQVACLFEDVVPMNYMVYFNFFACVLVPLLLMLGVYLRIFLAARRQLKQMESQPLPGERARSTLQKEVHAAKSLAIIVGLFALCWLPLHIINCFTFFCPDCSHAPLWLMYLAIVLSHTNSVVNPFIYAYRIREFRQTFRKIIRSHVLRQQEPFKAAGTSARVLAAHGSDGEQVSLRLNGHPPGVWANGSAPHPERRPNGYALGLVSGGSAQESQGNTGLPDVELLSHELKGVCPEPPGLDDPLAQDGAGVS

Usually EC50 stands for the concentration needed to bring the measured effect to its halfway point. What is called pEC50 is the EC50 on a negative log10 scale, so that one unit is a factor of ten. With `N#Cc1c(N)nc(SCc2ccnc(C(=O)NC3CC3)c2)c(C#N)c1-c1ccccc1` [Example 13], the solubility at 24 h in series [1] (setting [2]) worked out at 210 mg/L (≈ 492 µM). The molecule also yielded an EC50 on adenosine A1 receptor of 0.08 nM. Further, the pEC50 at adenosine A2b receptor is 7.34; on adenosine A2a receptor it was 6.97.

On to `CNC(=O)c1cc(CSc2ncc(C#N)c(-c3ccc(OCCO)cc3)c2C#N)ccn1` [Example 30], for which, on adenosine A1 receptor, it took 0.4 nM to reach a half-maximal effect (EC50). Also, the pEC50 on adenosine A2b receptor was 6.91; at adenosine A2a receptor, 5.95.

At adenosine A1 receptor, `CNC(=O)c1cc(CSc2ncc(C#N)c(-c3ccc(OC)cc3)c2C#N)ccn1` [Example 31] returned an EC50 of 1.6 nM. Further, the pEC50 at adenosine A2b receptor and at adenosine A2a receptor was 6.15 in each case.

As to `N#Cc1c(N)nc(SCc2cccc(C(N)=O)c2)c(C#N)c1-c1ccccc1` [Example 33], the solubility at 24 h in series [1] (setting [2]) came out at 53 mg/L (≈ 138 µM); in series [1] (setting [3]), 5 mg/L (≈ 13 µM). At adenosine A1 receptor, this molecule gave an EC50 of 0.3 nM. Also, the pEC50 was 8.41 at adenosine A2b receptor and 6.93 on adenosine A2a receptor.

In the case of `CNC(=O)c1cc(CSc2nc(N)c(C#N)c(-c3ccc(OS(=O)(=O)N(C)C)cc3)c2C#N)ccn1` [Example 46], the EC50 at adenosine A1 receptor stood at 0.04 nM. Also, the values for the pEC50 at adenosine A2b receptor and at adenosine A2a receptor were 6.37 and 6.11, respectively.

The molecule `CNC(=O)c1cc(CSc2nc(N)c(C#N)c(-c3ccc(OCCN)cc3)c2C#N)ccn1` [Example 54, 4-[({6-Amino-4-[4-(2-aminoethoxy)phenyl]-3,5-dicyanopyridin-2-yl}sulfanyl)methyl]-N-methylpyridine-2-carboxamide trifluoroacetate] registered an EC50 at adenosine A1 receptor of 0.04 nM. For the same molecule, the results for the pEC50 at adenosine A2b receptor and on adenosine A2a receptor were 6.77 and 6.94, respectively.

As to `CNC(=O)c1cc(CSc2nc(N)c(C#N)c(-c3ccc(OCCNC(=O)[C@H](C)N)cc3)c2C#N)ccn1` [Example 55, 4-{[(4-{4-[2-(L-Alanylamino)ethoxy]phenyl}-6-amino-3,5-dicyanopyridin-2-yl)sulfanyl]methyl}-N-methylpyridine-2-carboxamide trifluoroacetate], at adenosine A1 receptor, the EC50 was 0.4 nM. Moreover, the pEC50 at adenosine A2b receptor was 6.57; on adenosine A2a receptor, 6.40.

Take `N#Cc1c(N)nc(OCc2ccnc(C(=O)NC3CC3)c2)c(C#N)c1-c1ccccc1` [Example 68]: the response at adenosine A1 receptor was half-maximal at 0.4 nM (EC50). For the same molecule, the pEC50 was 6.36 at adenosine A2b receptor and 5.76 at adenosine A2a receptor.

In turn, `CNC(=O)c1cc(CSc2nc(N3CC(O)C3)c(C#N)c(-c3ccccc3)c2C#N)ccn1` [Example 70, 4-({[3,5-Dicyano-6-(3-hydroxyazetidin-1-yl)-4-phenylpyridin-2-yl]sulfanyl}methyl)-N-methylpyridine-2-carboxamide] came in with an EC50 at adenosine A1 receptor of 0.2 nM. In addition, the pEC50 was 5.84 on adenosine A2b receptor and 6.57 on adenosine A2a receptor.

The molecule `CNC(=O)c1cc(CSc2nc(N(C)CCO)c(C#N)c(-c3ccccc3)c2C#N)ccn1` [Example 75, 4-[({3,5-Dicyano-6-[(2-hydroxyethyl)(methyl)amino]-4-phenylpyridin-2-yl}sulfanyl)methyl]-N-methylpyridine-2-carboxamide] displayed an EC50 at adenosine A1 receptor of 0.2 nM. For the same molecule, the pEC50 on adenosine A2b receptor is 6.76; at adenosine A2a receptor it was 6.00.

For `CNC(=O)c1cc(CSc2nc(NCCO)c(C#N)c(-c3ccc(OCCO)nc3)c2C#N)ccn1` [Example 78], at adenosine A1 receptor, the EC50 was determined as 0.1 nM. In addition, the figures for the pEC50 on adenosine A2b receptor and at adenosine A2a receptor were 6.41 and 6.45, respectively.

Consider `CNC(=O)c1cc(CSc2nc(NC[C@H](O)CO)c(C#N)c(-c3ccccc3)c2C#N)ccn1` [Example 83], for which the response on adenosine A1 receptor was half-maximal at 0.2 nM (EC50). Besides, the pEC50 on adenosine A2b receptor was 6.23; at adenosine A2a receptor, 5.66.

For the molecule `CCNC(=O)c1cccc(CSc2nc(N3CCCC3)c(C#N)c(-c3ccc(OCCO)cc3)c2C#N)c1` [Example 98, 3-[({3,5-Dicyano-4-[4-(2-hydroxyethoxy)phenyl]-6-pyrrolidin-1-ylpyridin-2-yl}sulfanyl)methyl]-N-ethylbenzenecarboxamide], at adenosine A1 receptor, the EC50 worked out at 0.3 nM. Besides, the results for the pEC50 on adenosine A2b receptor and on adenosine A2a receptor were 6.22 and 5.81, respectively.

For `N#Cc1c(NC[C@@H](O)CO)nc(SCc2cccc(C(N)=O)c2)c(C#N)c1-c1ccccc1` [Example 99, 3-{[(3,5-Dicyano-6-{[(2R)-2,3-dihydroxypropyl]amino}-4-phenylpyridin-2-yl)sulfanyl]methyl}-benzenecarboxamide], the solubility at 24 h in series [1] (setting [2]) came out at 440 mg/L (≈ 957 µM); in series [1] (setting [3]), 9 mg/L (≈ 19.6 µM). The same molecule yielded an EC50 at adenosine A1 receptor of 0.9 nM.

At adenosine A1 receptor, `N#Cc1c(N)nc(SCc2cccc(C(=O)NCCN)c2)c(C#N)c1-c1ccccc1` [Example 101, 3-{[(6-Amino-3,5-dicyano-4-phenylpyridin-2-yl)sulfanyl]methyl}-N-(2-aminoethyl)benzenecarboxamide hydrochloride] gave an EC50 of 0.2 nM. The pEC50 at adenosine A2b receptor was 6.79; at adenosine A2a receptor, 6.36.
